{"source": "patent US12098144B2", "about": "“Piperazine indazole glucocorticoid receptor antagonists” (Corcept Therapeutics Incorporated, priority 2021, dated 2024)", "molecular_target": "T1, glucocorticoid receptor (Homo sapiens, UniProt P04150)", "T1 construct": "endogenous in cells; ATCC cat", "T1 sequence (P04150 1-777)": "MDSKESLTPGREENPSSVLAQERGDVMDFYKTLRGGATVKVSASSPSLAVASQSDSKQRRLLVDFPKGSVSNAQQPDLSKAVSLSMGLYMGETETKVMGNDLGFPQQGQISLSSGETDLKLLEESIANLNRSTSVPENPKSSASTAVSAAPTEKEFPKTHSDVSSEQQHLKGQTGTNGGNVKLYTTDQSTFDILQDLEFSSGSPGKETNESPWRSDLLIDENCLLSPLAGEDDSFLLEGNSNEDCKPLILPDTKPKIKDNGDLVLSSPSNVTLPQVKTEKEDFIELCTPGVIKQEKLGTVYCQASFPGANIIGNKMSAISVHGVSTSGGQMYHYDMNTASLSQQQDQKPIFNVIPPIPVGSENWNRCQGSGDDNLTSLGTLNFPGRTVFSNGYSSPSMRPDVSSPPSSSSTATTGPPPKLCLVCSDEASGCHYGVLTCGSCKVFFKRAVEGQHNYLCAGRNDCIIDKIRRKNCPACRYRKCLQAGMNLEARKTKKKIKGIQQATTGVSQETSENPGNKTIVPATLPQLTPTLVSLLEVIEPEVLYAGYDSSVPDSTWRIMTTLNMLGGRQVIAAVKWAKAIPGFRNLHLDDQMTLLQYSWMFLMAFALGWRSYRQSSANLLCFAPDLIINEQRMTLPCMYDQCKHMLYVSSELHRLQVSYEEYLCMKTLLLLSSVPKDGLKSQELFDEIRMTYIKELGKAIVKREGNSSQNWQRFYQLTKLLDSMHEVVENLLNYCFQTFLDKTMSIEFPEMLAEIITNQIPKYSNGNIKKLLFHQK", "experiment": "Hep G2 TAT IC50: inhibition of dexamethasone-induced TAT in HepG2 cells (384 well)", "type": "cell-based", "description": "Glucocorticoid mediated activation of TAT occurs by transactivation of glucocorticoid response elements in the TAT promoter by glucocorticoid receptor/agonist complex.\nHepG2 cells were cultured using MEME media supplemented with 10% (v/v) foetal bovine serum, 2 mM L-glutamine, 1% (v/v) NEAA, and 1% (v/v) penstrep, at 37° C., 5%/95% (v/v) CO2/air.\nCompounds were diluted from a 10 mM stock via an Echo Acoustic liquid handler into 10 μL assay media to generate a 10-point half-log dilution curve.\nHepG2 cells were then lysed with 8 μL of cell lysis buffer containing a protease inhibitor cocktail for 15 minutes at 25° C. […] After a 2-hour incubation at 37° C. the reaction was terminated by the addition of 8 μL of 5 M aqueous potassium hydroxide solution, and the plates incubated for a further 30 minutes at 37° C.\n[compound] and fitting the data to a 4-parameter logistic equation."}
{"smiles": "Cc1cc2c(cnn2-c2ccc(F)cc2)cc1C1CN(S(=O)(=O)N2CCOCC2)CCN1CC1CCC1", "note": "(single isomer, unassigned) [Example 178, 4-(4-(cyclobutylmethyl)-3-[1-(4-fluorophenyl)-6-methyl-indazol-5-yl]piperazin-1-yl)sulfonylmorpholine]", "values": [{"measurement": "IC50", "value": 3.43, "unit": "µM"}]}
{"smiles": "Cc1cc2c(cnn2-c2ccc(F)cc2)cc1C1CN(S(=O)(=O)N2CCOCC2)CCN1CC1CC(F)(F)C1", "note": "(single isomer, unassigned) [Example 179, 4-(4-((3,3-difluorocyclobutyl)methyl)-3-(1-(4-fluorophenyl)-6-methyl-indazol-5-yl)piperazin-1-yl)sulfonylmorpholine]", "values": [{"measurement": "IC50", "value": 2.02, "unit": "µM"}]}
{"smiles": "Cc1cc2c(cnn2-c2ccc(F)cc2)cc1C1CN(S(=O)(=O)N2CCOCC2)CCN1CC1CCCC1", "note": "(single isomer, unassigned) [Example 180, 4-(4-(cyclopentylmethyl)-3-(1-(4-fluorophenyl)-6-methyl-indazol-5-yl)piperazin-1-yl)sulfonylmorpholine]", "values": [{"measurement": "IC50", "value": 2.09, "unit": "µM"}]}
{"smiles": "Cc1cc2c(cnn2-c2ccc(F)cc2)cc1C1CN(S(=O)(=O)N(C)C)CCN1CCC(F)(F)F", "note": "(single isomer, unassigned) [Example 181, 3-(1-(4-fluorophenyl)-6-methyl-indazol-5-yl)-N,N-dimethyl-4-(3,3,3-trifluoropropyl)piperazine-1-sulfonamide]", "values": [{"measurement": "IC50", "value": 1.66, "unit": "µM"}]}
{"smiles": "Cc1cc2c(cnn2-c2ccc(F)cc2)cc1C1CN(S(=O)(=O)N(C)C)CCN1CC1CCC1", "note": "(single isomer, unassigned) [Example 182, 4-(cyclobutylmethyl)-3-(1-(4-fluorophenyl)-6-methyl-indazol-5-yl)-N,N-dimethyl-piperazine-1-sulfonamide]", "values": [{"measurement": "IC50", "value": 3.59, "unit": "µM"}]}
{"smiles": "Cc1cc2c(cnn2-c2ccc(F)cc2)cc1C1CN(S(=O)(=O)N(C)C)CCN1CC1CC(F)(F)C1", "note": "(single isomer, unassigned) [Example 183, 4-((3,3-difluorocyclobutyl)methyl)-3-(1-(4-fluorophenyl)-6-methyl-indazol-5-yl)-N,N-dimethyl-piperazine-1-sulfonamide]", "values": [{"measurement": "IC50", "value": 2.66, "unit": "µM"}]}
{"smiles": "Cc1nc(S(=O)(=O)N2CCN(CC3CCC3)C(c3cc4cnn(-c5ccc(F)cc5)c4cc3C)C2)cs1", "note": "(single isomer, unassigned) [Example 184, 4-(4-(cyclobutylmethyl)-3-(1-(4-fluorophenyl)-6-methyl-indazol-5-yl)piperazin-1-yl)sulfonyl-2-methyl-thiazole]", "values": [{"measurement": "IC50", "value": 1.16, "unit": "µM"}]}
{"smiles": "Cc1nc(S(=O)(=O)N2CCN(CC3CC(C)(C)C3)C(c3cc4cnn(-c5ccc(F)cc5)c4cc3C)C2)cs1", "note": "(single isomer, unassigned) [Example 185, 4-(4-((3,3-dimethylcyclobutyl)methyl)-3-(1-(4-fluorophenyl)-6-methyl-indazol-5-yl)piperazin-1-yl)sulfonyl-2-methyl-thiazole]", "values": [{"measurement": "IC50", "value": 1.22, "unit": "µM"}]}
{"smiles": "Cc1nc(S(=O)(=O)N2CCN(CC3CCCC3)C(c3cc4cnn(-c5ccc(F)cc5)c4cc3C)C2)cs1", "note": "(single isomer, unassigned) [Example 186, 4-(4-(cyclopentylmethyl)-3-(1-(4-fluorophenyl)-6-methyl-indazol-5-yl)piperazin-1-yl)sulfonyl-2-methyl-thiazole]", "values": [{"measurement": "IC50", "value": 2.4, "unit": "µM"}]}
{"smiles": "Cc1ncc(S(=O)(=O)N2CCN(CC3CCCC3)C(c3cc4cnn(-c5ccc(F)cc5)c4cc3C)C2)s1", "note": "(single isomer, unassigned) [Example 187, 5-(4-(cyclopentylmethyl)-3-(1-(4-fluorophenyl)-6-methyl-indazol-5-yl)piperazin-1-yl)sulfonyl-2-methyl-thiazole]", "values": [{"measurement": "IC50", "value": 1.66, "unit": "µM"}]}
{"smiles": "Cc1cc2c(cnn2-c2ccc(F)cc2)cc1C1CN(S(=O)(=O)c2cccnn2)CCN1CC(C)C", "note": "(single isomer, unassigned) [Example 190, 1-(4-fluorophenyl)-5-(1-isobutyl-4-pyridazin-3-ylsulfonyl-piperazin-2-yl)-6-methyl-indazole]", "values": [{"measurement": "IC50", "value": 1.07, "unit": "µM"}]}
{"smiles": "Cc1cc2c(cnn2-c2ccc(F)cc2)cc1C1CN(S(=O)(=O)N2CCOCC2)CCN1Cc1ccccc1", "note": "(single isomer, unassigned) [Example 214, 4-(4-benzyl-3-(1-(4-fluorophenyl)-6-methyl-indazol-5-yl)piperazin-1-yl)sulfonylmorpholine]", "values": [{"measurement": "IC50", "value": 2.75, "unit": "µM"}]}
{"smiles": "Cc1cc2c(cnn2-c2ccc(F)cc2)cc1C1CN(S(=O)(=O)N2CCOCC2)CCN1CCc1ccccc1", "note": "(single isomer, unassigned) [Example 215, 4-(3-(1-(4-fluorophenyl)-6-methyl-indazol-5-yl)-4-(2-phenylethyl)piperazin-1-yl)sulfonylmorpholine]", "values": [{"measurement": "IC50", "value": 3.98, "unit": "µM"}]}
{"smiles": "Cc1cc2c(cnn2-c2ccc(F)cc2)cc1C1CN(S(=O)(=O)c2cnn(C)n2)CCCN1CCC(F)(F)F", "note": "(stereo not shown) [Example 173, 1-(4-fluorophenyl)-6-methyl-5-(4-(2-methyltriazol-4-yl)sulfonyl-1-(3,3,3-trifluoropropyl)-1,4-diazepan-2-yl)indazole]", "values": [{"measurement": "IC50", "value": 2.75, "unit": "µM"}]}
{"smiles": "CCn1cc(S(=O)(=O)N2CCN(CCC(F)(F)F)C(c3cc4cnn(-c5cc(C)c(=O)n(C)c5)c4cc3C)C2)cn1", "note": "(stereo not shown) [Example 174, 5-(5-(4-(1-ethylpyrazol-4-yl)sulfonyl-1-(3,3,3-trifluoropropyl)piperazin-2-yl)-6-methyl-indazol-1-yl)-1,3-dimethyl-pyridin-2-one]", "values": [{"measurement": "IC50", "value": 0.191, "unit": "µM"}]}
{"smiles": "Cc1cc2c(cnn2-c2cc(C)c(=O)n(C)n2)cc1C1CN(S(=O)(=O)c2cnn(C)n2)CCN1CCC(F)(F)F", "note": "(stereo not shown) [Example 175, 2,4-dimethyl-6-(6-methyl-5-(4-(2-methyltriazol-4-yl)sulfonyl-1-(3,3,3-trifluoropropyl)piperazin-2-yl)indazol-1-yl)pyridazin-3-one]", "values": [{"measurement": "IC50", "value": 1.24, "unit": "µM"}]}
{"smiles": "COc1cc2c(cnn2-c2ccc(F)cc2)cc1C1CN(S(=O)(=O)c2csc(C)n2)CCN1CCC(F)(F)F", "note": "(stereo not shown) [Example 188, 4-(3-(1-(4-fluorophenyl)-6-methoxy-indazol-5-yl)-4-(3,3,3-trifluoropropyl)piperazin-1-yl)sulfonyl-2-methyl-thiazole]", "values": [{"measurement": "IC50", "value": 1.32, "unit": "µM"}]}
{"smiles": "COc1cc2c(cnn2-c2ccc(F)cc2)cc1C1CN(S(=O)(=O)c2csc(C)n2)CCN1CC1CCCC1", "note": "(stereo not shown) [Example 189, 4-(4-(cyclopentylmethyl)-3-(1-(4-fluorophenyl)-6-methoxy-indazol-5-yl)piperazin-1-yl)sulfonyl-2-methyl-thiazole]", "values": [{"measurement": "IC50", "value": 1.66, "unit": "µM"}]}
{"smiles": "Cc1ncc(S(=O)(=O)N2CCCN(CCC(F)(F)F)C(c3cc4cnn(-c5ccc(F)cc5)c4cc3C)C2)s1", "note": "(stereo not shown) [Example 191, 5-((3-(1-(4-fluorophenyl)-6-methyl-indazol-5-yl)-4-(3,3,3-trifluoropropyl)-1,4-diazepan-1-yl)sulfonyl)-2-methyl-thiazole]", "values": [{"measurement": "IC50", "value": 4.03, "unit": "µM"}]}
{"smiles": "COc1cc2c(cnn2-c2ccc(F)cc2)cc1C1CN(S(=O)(=O)N2CCOCC2)CCN1CCC(F)(F)F", "note": "(stereo not shown) [Example 192, 4-(3-(1-(4-fluorophenyl)-6-methoxy-indazol-5-yl)-4-(3,3,3-trifluoropropyl)piperazin-1-yl)sulfonylmorpholine]", "values": [{"measurement": "IC50", "value": 3.16, "unit": "µM"}]}
{"smiles": "COc1cc2c(cnn2-c2ccc(F)cc2)cc1C1CN(S(=O)(=O)N2CCOCC2)CCN1CC1CC(F)(F)C1", "note": "(stereo not shown) [Example 193, 4-(4-((3,3-difluorocyclobutyl)methyl)-3-(1-(4-fluorophenyl)-6-methoxy-indazol-5-yl)piperazin-1-yl)sulfonylmorpholine]", "values": [{"measurement": "IC50", "value": 2.79, "unit": "µM"}]}
{"smiles": "Cc1cc2c(cnn2-c2cc(C)c(=O)n(C)c2)cc1C1CN(S(=O)(=O)c2cccnc2)CCN1CCC(F)(F)F", "note": "(stereo not shown) [Example 194, 1,3-dimethyl-5-(6-methyl-5-(4-(3-pyridylsulfonyl)-1-(3,3,3-trifluoropropyl)piperazin-2-yl)indazol-1-yl)pyridin-2-one]", "values": [{"measurement": "IC50", "value": 0.443, "unit": "µM"}]}
{"smiles": "Cc1cc2c(cnn2-c2cc(C)c(=O)n(C)c2)cc1C1CN(S(=O)(=O)c2ccccn2)CCN1CCC(F)(F)F", "note": "(stereo not shown) [Example 195, 1,3-dimethyl-5-(6-methyl-5-(4-(2-pyridylsulfonyl)-1-(3,3,3-trifluoropropyl)piperazin-2-yl)indazol-1-yl)pyridin-2-one]", "values": [{"measurement": "IC50", "value": 0.253, "unit": "µM"}]}
{"smiles": "Cc1cc2c(cnn2-c2cc(C)c(=O)n(C)c2)cc1C1CN(S(=O)(=O)N(C)C)CCN1CCC(F)(F)F", "note": "(stereo not shown) [Example 196, 3-(1-(1,5-dimethyl-6-oxo-3-pyridyl)-6-methyl-indazol-5-yl)-N,N-dimethyl-4-(3,3,3-trifluoropropyl)piperazine-1-sulfonamide]", "values": [{"measurement": "IC50", "value": 0.284, "unit": "µM"}]}
{"smiles": "Cc1cc2c(cnn2-c2ccc(=O)n(C)c2)cc1C1CN(S(=O)(=O)c2cccnc2)CCN1CCC(F)(F)F", "note": "(stereo not shown) [Example 197, 1-methyl-5-(6-methyl-5-(4-(3-pyridylsulfonyl)-1-(3,3,3-trifluoropropyl)piperazin-2-yl)indazol-1-yl)pyridin-2-one]", "values": [{"measurement": "IC50", "value": 1, "unit": "µM"}]}
